The record followed here is publication PMC12073438, “Stereoselectivity of In Vivo Processes and Bioactivity of Farrerol Enantiomers” (Molecules, 2025).

The structures appear in SMILES notation.

One data set concerns the target T1, CYP1A2 (Homo sapiens, UniProt P05177).
T1 sequence (P05177 1-516): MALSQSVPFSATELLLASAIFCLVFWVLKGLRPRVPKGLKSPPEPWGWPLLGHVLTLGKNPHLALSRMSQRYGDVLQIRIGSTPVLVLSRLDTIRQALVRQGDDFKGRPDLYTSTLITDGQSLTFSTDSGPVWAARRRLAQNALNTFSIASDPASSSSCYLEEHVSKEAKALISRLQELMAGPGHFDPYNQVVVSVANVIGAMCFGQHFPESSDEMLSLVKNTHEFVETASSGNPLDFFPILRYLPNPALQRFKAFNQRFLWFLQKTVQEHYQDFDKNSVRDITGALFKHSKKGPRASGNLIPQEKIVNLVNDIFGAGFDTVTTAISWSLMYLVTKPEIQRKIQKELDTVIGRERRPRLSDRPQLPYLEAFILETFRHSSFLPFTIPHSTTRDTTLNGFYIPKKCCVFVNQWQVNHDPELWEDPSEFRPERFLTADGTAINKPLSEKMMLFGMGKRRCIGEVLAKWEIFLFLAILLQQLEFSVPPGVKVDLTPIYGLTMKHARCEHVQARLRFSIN
Put plainly: CYP inhibition in liver microsomes (phenacetin). The conditions noted are these: IC50, CYP 1A2, marker substrate phenacetin. On the procedure: (§1) A liver microsome working solution (20 mg/mL) contained potassium phosphate buffer (0.1 M, pH 7.4), hepatic microsomes and marker substrate solution, which phenacetin, diclofenic acid, S-mephenytoinwer, dextromethorphan, midazolam, coumarin and chlorzoxazone used as substrates for […], CYP2C9, CYP2C19, CYP2D6, CYP3A4/5, CYP2A6 and CYP2E1, respectively. In brief, 238.5 µL of liver microsome working solution was placed in a 1 mL EP tube. […] The reaction was started by injecting NADPH (1 mM), and the resulting mixture was incubated at 37 °C for 10 min. After centrifuging at 4000 rpm for 15 min, the supernatant was transferred and analyzed using LC-MS/MS to detect the corresponding metabolites. Each incubation was conducted in triplicate (n = 3).
An API 4000 LC/tandem mass spectrometry was used to analyze the concentration of metabolites of various chemical agents using a validated mode. An Atlantis T3 column (2.1 mm × 50 mm, 5 μm) was utilized, employing mobile phases consisting of a 0.1% formic acid solution (A) and a 0.1% acetonitrile formate solution (B). […] As for the detection of CYP 2E1 metabolite, the Flow composition was as follows: 0–0.30 min, 10% B; 0.30–1.30 min, 10–55% B; 1.30–1.50 min, 55–95% B; 1.50–2.00 min, 95% B; 2.00–2.01 min, 95–10% B; the low rate was 0.85 mL/min. ESI was conducted in positive ion mode. MRM was utilized to quantify each metabolite, detecting the following transitions: m/z 152.1/110 for acetaminophen, 312.1/230.0 for 4′-Hydroxydiclofenac, 235.0/150.0 for 4′-hydroxymephentoin, 258.2/199.1 for Dextrorphan, 342.1/203.0 for 1′-hydroxymidazolam, 161.1/133.1 for hydroxycoumarin, and 184.0/120.0 for 6-hydroxyclozoxadone.
In general terms: Liver microsomes are a subcellular fraction often used to study metabolism.

A further data set concerns the target CYP2C9 (Homo sapiens, UniProt P11712). The data set is described as follows: CYP inhibition in liver microsomes (diclofenac). The conditions noted are these: IC50, CYP 2C9, marker substrate diclofenac. On the procedure: as §1, with “After centrifuging at 4000 rpm for 15 min, the supernatant was transferred and analyzed using LC-MS/MS to detect the corresponding metabolites.” left out
An API 4000 LC/tandem mass spectrometry was used to analyze the concentration of metabolites of various chemical agents using a validated mode. An Atlantis T3 column (2.1 mm × 50 mm, 5 μm) was utilized, employing mobile phases consisting of a 0.1% formic acid solution (A) and a 0.1% acetonitrile formate solution (B). […] ESI was conducted in positive ion mode.

A further data set concerns the target CYP2C19 (Homo sapiens, UniProt P33261). Put plainly: CYP inhibition in liver microsomes (S-mephenytoin). It counts as in vitro ADME. To be noted: CYP 2C19, marker substrate S-mephenytoin. The protocol: as §1
An API 4000 LC/tandem mass spectrometry was used to analyze the concentration of metabolites of various chemical agents using a validated mode. An Atlantis T3 column (2.1 mm × 50 mm, 5 μm) was utilized, employing mobile phases consisting of a 0.1% formic acid solution (A) and a 0.1% acetonitrile formate solution (B). […] MRM was utilized to quantify each metabolite, detecting the following transitions: m/z 152.1/110 for acetaminophen, 312.1/230.0 for 4′-Hydroxydiclofenac, 235.0/150.0 for 4′-hydroxymephentoin, 258.2/199.1 for Dextrorphan, 342.1/203.0 for 1′-hydroxymidazolam, 161.1/133.1 for hydroxycoumarin, and 184.0/120.0 for 6-hydroxyclozoxadone.

Data set [1] in a line: Rat single-pass intestinal perfusion. In kind it is in vivo, Sprague–Dawley rats. On the procedure:
The absorption rate constant (Ka) and permeability coefficient (Peff) were calculated using the following equation: […] The single-pass intestinal perfusion studies in rats were conducted following previously established methodologies. […] Before the surgical procedure, animals were fasted overnight with water ad libitum. Rats were anesthetized via intraperitoneal administration of 20% urethane at a dosage of 6 mL/kg and subsequently positioned on a heating pad. Their normal body temperature (37.0 ± 0.5 °C) was sustained using an infrared lamp. A midline incision was made to open the abdomen, allowing for the exposure of 35–45 cm of the small intestine, along with a 10 cm segment […]. This segment was cannulated with Teflon tubing (0.42 cm in diameter) at both the proximal and distal ends, which were then secured with silk sutures. This segment was gently flushed with warmed normal saline to remove intestinal contents. Then, farrerol racemate maintained at 37 °C was perfused through the lumen of the small intestine at a flow rate of 0.2 mL/min. After a 30 min equilibration period to reach steady-state outlet concentrations, the perfusate samples were collected every 15 min for 120 min in micro-centrifuge tubes. The length of the small intestinal segment was measured following the last collection. All collected samples were stored at −20 °C. 500 μL of collected intestinal perfusion samples were placed in an EP tube and then dried with nitrogen at 37 °C. The residue was redissolved and precipitated with 200 μL of methanol by vortex-mixing for 5 min. Following centrifugation at 13,000 rpm for 10 min, the supernatant samples were analyzed using the previously validated RP-HPLC-DAD method. The chiral HPLC technique employed for the analysis of farreol enantiomers in intestinal perfusate aligned with the chromatographic procedure outlined in Section 3.4.3. This method underwent validation for parameters including linearity, range, extraction recovery, specificity, precision, and accuracy. […] The extraction recoveries of farrerol in intestinal perfusate at three different concentration levels ranged from 90.57% to 95.57%.

[2] abbreviates: Colon, farrerol racemate 66.00 μg·mL^−1.
Where [3] appears, read: Colon, farrerol racemate 132.00 μg·mL^−1.
Where [4] appears, read: Colon, farrerol racemate 132.00 μg·mL^−1 + verapamil.
Where [5] appears, read: Colon, farrerol racemate 180.00 μg·mL^−1.
[6] abbreviates: Duodenum, farrerol racemate 66.00 μg·mL^−1.
Where [7] appears, read: Duodenum, farrerol racemate 132.00 μg·mL^−1.
Setting [8] is: Duodenum, farrerol racemate 132.00 μg·mL^−1 + verapamil.
[9] abbreviates: Duodenum, farrerol racemate 180.00 μg·mL^−1.
Setting [10] is: Ileum, farrerol racemate 66.00 μg·mL^−1.
Where [11] appears, read: Ileum, farrerol racemate 132.00 μg·mL^−1.
[12] abbreviates: Ileum, farrerol racemate 132.00 μg·mL^−1 + verapamil.
Where [13] appears, read: Ileum, farrerol racemate 180.00 μg·mL^−1.
[14] abbreviates: Jejunum, farrerol racemate 66.00 μg·mL^−1.
Where [15] appears, read: Jejunum, farrerol racemate 132.00 μg·mL^−1.
[16] abbreviates: Jejunum, farrerol racemate 132.00 μg·mL^−1 + verapamil.
The mark [17] stands for this setting: Jejunum, farrerol racemate 180.00 μg·mL^−1.

Sequence of CYP2C9 (P11712 whole entry): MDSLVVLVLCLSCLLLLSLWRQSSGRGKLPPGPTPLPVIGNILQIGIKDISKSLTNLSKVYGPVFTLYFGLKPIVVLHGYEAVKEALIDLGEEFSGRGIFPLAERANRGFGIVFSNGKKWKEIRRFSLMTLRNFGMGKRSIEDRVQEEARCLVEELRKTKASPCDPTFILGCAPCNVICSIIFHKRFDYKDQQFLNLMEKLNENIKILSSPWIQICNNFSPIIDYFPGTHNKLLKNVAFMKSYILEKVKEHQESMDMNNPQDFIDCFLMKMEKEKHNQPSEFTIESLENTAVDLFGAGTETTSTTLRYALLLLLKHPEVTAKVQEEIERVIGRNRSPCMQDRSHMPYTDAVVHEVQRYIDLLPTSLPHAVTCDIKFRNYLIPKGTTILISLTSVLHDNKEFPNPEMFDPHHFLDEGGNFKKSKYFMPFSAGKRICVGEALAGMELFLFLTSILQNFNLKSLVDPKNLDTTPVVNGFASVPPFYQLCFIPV
Sequence of CYP2C19 (P33261 whole entry): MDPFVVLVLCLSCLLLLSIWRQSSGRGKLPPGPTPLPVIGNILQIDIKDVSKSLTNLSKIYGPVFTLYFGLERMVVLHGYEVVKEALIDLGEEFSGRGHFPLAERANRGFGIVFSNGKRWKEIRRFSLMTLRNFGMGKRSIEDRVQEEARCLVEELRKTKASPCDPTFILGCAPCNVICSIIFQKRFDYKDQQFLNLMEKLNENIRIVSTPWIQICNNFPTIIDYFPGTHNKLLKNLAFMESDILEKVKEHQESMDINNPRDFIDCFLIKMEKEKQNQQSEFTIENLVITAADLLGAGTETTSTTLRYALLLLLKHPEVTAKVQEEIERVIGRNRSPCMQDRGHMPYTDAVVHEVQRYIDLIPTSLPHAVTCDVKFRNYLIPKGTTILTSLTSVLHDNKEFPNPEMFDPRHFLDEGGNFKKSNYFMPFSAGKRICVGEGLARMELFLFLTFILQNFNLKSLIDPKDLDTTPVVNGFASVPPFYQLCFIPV

For `Cc1c(O)c(C)c2c(c1O)C(=O)CC(c1ccc(O)cc1)O2` (single isomer, unassigned; (+)) [(+)-farrerol, 2,3-dihydro-5,7-dihydroxy-2-(4-hydroxyphenyl)-6,8-dimethyl-4-benzopyrone], the IC50 – broadly, the concentration at which inhibition is half-maximal – against CYP1A2 was 588 nM; on CYP2C9 it was 1970 nM; at CYP2C19, 1610 nM. Besides, the Peff in data set [1] (setting [2]) is 1.09 ± 0.37 ×10^−1 cm·min^−1; in data set [1] (setting [3]), 0.93 ± 0.09 ×10^−1 cm·min^−1; in data set [1] (setting [4]), 1.41 ± 0.23 ×10^−1 cm·min^−1; in data set [1] (setting [5]), 1.04 ± 0.12 ×10^−1 cm·min^−1; in data set [1] (setting [6]), 1.32 ± 0.03 ×10^−1 cm·min^−1; in data set [1] (setting [7]), 1.16 ± 0.11 ×10^−1 cm·min^−1. The Peff in data set [1] (setting [8]) was 1.42 ± 0.17 ×10^−1 cm·min^−1; in data set [1] (setting [9]) it was 1.30 ± 0.14 ×10^−1 cm·min^−1; in data set [1] (setting [10]), 1.12 ± 0.22 ×10^−1 cm·min^−1; in data set [1] (setting [11]) it was 0.87 ± 0.08 ×10^−1 cm·min^−1; in data set [1] (setting [12]), 0.77 ± 0.11 ×10^−1 cm·min^−1; in data set [1] (setting [13]) it was 0.79 ± 0.04 ×10^−1 cm·min^−1. Moreover, the Peff was 1.16 ± 0.23 ×10^−1 cm·min^−1 in data set [1] (setting [14]), 0.73 ± 0.03 ×10^−1 cm·min^−1 in data set [1] (setting [15]), 1.12 ± 0.10 ×10^−1 cm·min^−1 in data set [1] (setting [16]) and 1.03 ± 0.06 ×10^−1 cm·min^−1 in data set [1] (setting [17]).
For `Cc1c(O)c(C)c2c(c1O)C(=O)CC(c1ccc(O)cc1)O2` (single isomer, unassigned; (-)) [(−)-farrerol, 2,3-dihydro-5,7-dihydroxy-2-(4-hydroxyphenyl)-6,8-dimethyl-4-benzopyrone], the IC50 against CYP1A2 is 1020 nM; at CYP2C9, 1570 nM; at CYP2C19, 2070 nM. The Peff in data set [1] (setting [2]) is 1.12 ± 0.41 ×10^−1 cm·min^−1; in data set [1] (setting [3]), 0.95 ± 0.10 ×10^−1 cm·min^−1; in data set [1] (setting [4]) it was 1.42 ± 0.23 ×10^−1 cm·min^−1; in data set [1] (setting [5]), 1.12 ± 0.17 ×10^−1 cm·min^−1; in data set [1] (setting [6]), 1.33 ± 0.03 ×10^−1 cm·min^−1; in data set [1] (setting [7]), 1.17 ± 0.10 ×10^−1 cm·min^−1. The Peff in data set [1] (setting [8]) is given as 1.43 ± 0.17 ×10^−1 cm·min^−1; in data set [1] (setting [9]), 1.33 ± 0.11 ×10^−1 cm·min^−1; in data set [1] (setting [10]), 1.14 ± 0.22 ×10^−1 cm·min^−1; in data set [1] (setting [11]) it was 0.89 ± 0.10 ×10^−1 cm·min^−1; in data set [1] (setting [12]) it was 0.77 ± 0.11 ×10^−1 cm·min^−1; in data set [1] (setting [13]), 0.78 ± 0.07 ×10^−1 cm·min^−1. In addition, the Peff in data set [1] (setting [14]) is listed as 1.17 ± 0.24 ×10^−1 cm·min^−1; in data set [1] (setting [15]), 0.74 ± 0.05 ×10^−1 cm·min^−1; in data set [1] (setting [16]), 1.12 ± 0.10 ×10^−1 cm·min^−1; in data set [1] (setting [17]) it was 1.07 ± 0.10 ×10^−1 cm·min^−1.
